Measurements taken from patent US6323235A, “Benzene-condensed heterocyclic derivatives and their uses” (priority 1995, dated 2001).

Key:
[1] = system: platelet aggregation induced by TXA2 agonist U-46619; assay: Platelet Aggregation-inhibition Action 1 (U-46619-induced, platelet-rich plasma); format: cell-based; settings: U-46619 1-4 μM final, PRP, compound added one minute before U-46619
Procedure: Platelet Aggregation-inhibition Action 1
(§1) Blood collected from medial cubital vein is centrifuged at 800 rmp for 10 minutes and the upper portion of the resultant is collected as platelet-rich plasma (PRP). The PRP is dividedly poured into small test tubes and a TXA2 agonist U-46619 is added thereto (final concentration: 1-4 μM) so as to induce platelet aggregation. The degree of platelet aggregation is measured in terms of change in turbidity by a platelet aggregation measuring apparatus (Hematoracer, NIKO BIOSCIENCE). The compound is added one minute before the addition of U-46619 and the concentration of the compound at which the aggregation is inhibited by 50% is calculated as IC50 value.

[2] = system: platelet aggregation induced by ADP; assay: Platelet Aggregation-Inhibition Action 2 (ADP-induced, platelet-rich plasma); format: cell-based; settings: ADP 1-3 μM final, PRP, compound added one minute before ADP
Procedure: Platelet Aggregation-Inhibition Action 2
as §1, with “PRP).” for “(PRP).”, “ADP” for “a TXA2 agonist U-46619”, “1-3” for “1-4”, “Hematoracer,” for “(Hematoracer,”, “ADP” for “U-46619 and”

[3] = biological target: T1, TXA2 receptor (Oryctolagus cuniculus, UniProt Q6WQI8); assay: TXA2 Receptor Binding Test 1 ([3H]SQ29548, washed rabbit platelets); parameters: species or system New Zealand White rabbit; settings: [3H]SQ29548 3 nM, rabbit washed platelets 10 mg/ml, 25° C., 60 minutes
T1 sequence (Q6WQI8 1-233): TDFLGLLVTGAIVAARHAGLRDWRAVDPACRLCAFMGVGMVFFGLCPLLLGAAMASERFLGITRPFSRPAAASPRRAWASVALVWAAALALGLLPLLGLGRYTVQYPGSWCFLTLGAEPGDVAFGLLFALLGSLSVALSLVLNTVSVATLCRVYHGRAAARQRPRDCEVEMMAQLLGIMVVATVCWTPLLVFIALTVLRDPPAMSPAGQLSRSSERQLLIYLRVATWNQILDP
Procedure: TXA2 Receptor Binding Test 1
Blood from a New Zealand White rabbit is taken in a vessel containing ACD solution (prepared by dissolving 1.175 g of sodium citrate, 0.685 g of citric acid and 1 g of dextrose in 50 ml of distilled water) and centrifuged at 180×g for 10 minutes at room temperature to obtain platelet-rich plasma. The obtained platelet-rich plasma is centrifuged at […] at room temperature to precipitate platelets. The platelets are then suspended in 50 mM Tris-HCl buffer (pH 7.2, containing 0.154M of NaCl) and the suspension is centrifuged at 2800×g for 15 minutes at 4° C. These operations are repeated twice to prepare washed platelets and the concentration of the platelets are adjusted to a final concentration of 10 mg/ml (wet weight).
As the ligand of TXA2, tritium-labelled SQ29548 ([^3 H]SQ29548) is used. In the antagonism test, 20 μl of [^3 H]SQ29548 having a final concentration of 3 nM is added to 500 μl of a platelet suspension having a platelet concentration of 10 mg/ml and 2.6 μl of a solution of a test compound dissolved in an appropriate solvent is added thereto. After incubating the resulting mixture at 25° C. for 60 minutes, the mixture is filtered through a glass filter by the cell harvester method. After washing the filter with 50 mM Tris-HCl buffer (3×4 ml), the radioactivity of the filter is measured by a scintillation counter, thereby measuring the amount of the [^3 H]SQ29548 bound to platelets. In the saturation test, 20 μl of [^3 H]SQ29548 is added to a final concentration of 0.1-50 nM and 2.6 μl of BM13505 having a final concentration of 1 μM is added so as to check non-specific binding, followed by carrying out the binding test. The concentration of the test compound at which binding of [^3 H]SQ29548 is inhibited by 50% is determined as the IC50 value.
The results of the evaluation of the activities of the compounds of the present invention by this method are summarized d in Table 3.

SMILES	IC50 [1] [µM]	IC50 [2] [µM]	IC50 [3] [µM]
O=C(O)COc1cccc2c(CNS(=O)(=O)CCOc3ccccc3)coc12 [Example 4]	1.1	–	–
O=C(O)COc1cccc2c(CNS(=O)(=O)CCc3ccccc3)coc12 [Example 8, (3-(((2-phenylethyl)sulfonylamino)methyl)benzofuran-7-yloxy)acetic acid]	1	305	–
O=C(O)COc1cccc2c(CNS(=O)(=O)CCCc3ccccc3)coc12 [Example 9, (3-((3-phenylpropylsulfonylamino)methyl)benzofuran-7-yloxy)acetic acid]	0.3	–	0.00446
O=C(O)COc1cccc2c(CNS(=O)(=O)c3ccc4ccccc4c3)coc12 [Example 13]	7.2	–	0.0292
Cc1oc2c(OCC(=O)O)cccc2c1CNS(=O)(=O)CCCc1ccccc1 [Example 17, (3-(((3-phenylpropyl)sulfonylamino)methyl)-2-methylbenzofuran-7-yloxy)acetic acid]	0.14	–	0.00192
CC(C)c1oc2c(OCC(=O)O)cccc2c1CNS(=O)(=O)CCc1ccccc1 [Example 19, (3-(((2-phenylethyl)sulfonylamino)methyl)-2-isopropylbenzofuran-7-yloxy)acetic acid]	1.4	–	0.788
Cc1oc2c(OCC(=O)O)cccc2c1CCNS(=O)(=O)Cc1ccccc1 [Example 24, (3-(2-(benzylsulfonylamino)ethyl)-2-methylbenzofuran-7-yloxy)acetic acid]	0.088	–	0.0186
Cc1oc2c(OCC(=O)O)cccc2c1CCNS(=O)(=O)CCc1ccccc1 [Example 25, (3-(2-(2-phenylethylsulfonylamino)ethyl)-2-methylbenzofuran-7-yloxy)acetic acid]	0.14	–	0.00479
Cc1oc2c(OCC(=O)O)cccc2c1CC[S+]([O-])CCc1ccccc1 (stereo not drawn) [Example 32, (3-(2-(2-phenylethylsulfinyl)ethyl)-2-methylbenzofuran-7-yloxy)acetic acid]	1.6	–	0.569
Cc1oc2c(OCC(=O)O)cccc2c1CCS(=O)(=O)CCc1ccccc1 [Example 33, (3-(2-(2-phenylethylsulfonyl)ethyl)-2-methylbenzofuran-7-yloxy)acetic acid]	1.1	–	0.0919
Cc1oc2c(OCC(=O)O)cccc2c1CCON=C(c1ccccc1)c1ccccc1 [Example 35, (3-(2-(diphenylmethyleneaminoxy)ethyl)-2-methylbenzofuran-7-yloxy)acetic acid]	4.5	7.8	–
O=C(O)COc1cccc2c(CCOC(c3ccccc3)c3ccccc3)coc12 [Example 43, (3-(2-(diphenylmethoxy)ethyl)benzofuran-7-yloxy)acetate]	4	–	0.0696
O=C(O)COc1cccc2c(CCOCc3ccc(-c4ccccc4)cc3)coc12 [Example 46, (3-(2-(4-phenylbenzyloxy)ethyl)benzofuran-7-yloxy)acetic acid]	–	–	0.596
O=C(O)COc1cccc2c(CCOCC(=O)c3ccccc3)coc12 [Example 47, (3-(2-(2-oxo-2-phenylethoxy)ethyl)benzofuran-7-yloxy)acetic acid]	–	–	3.67
O=C(O)COc1cccc2c(COCC(c3ccccc3)c3ccccc3)coc12 [Example 49, (3-((2,2-diphenylethoxy)methyl)benzofuran-7-yloxy)acetic acid]	–	8.2	–
C[C@@H](COCc1coc2c(OCC(=O)O)cccc12)c1ccccc1 [Example 51, (R)-(3-((2-phenylpropyloxy)methyl)benzofuran-7-yloxy)acetic acid]	–	–	0.229

SMILES	IC50 [1] [µM]	IC50 [2] [µM]	IC50 [3] [µM]
O=C(O)COc1cccc2c(COC(Cc3ccccc3)Cc3ccccc3)coc12 [Example 53, (3-((1-benzyl-2-phenylethoxy)methyl)benzofuran-7-yloxy)acetic acid]	–	–	2.02
O=C(O)COc1cccc2c(COCCOC(c3ccccc3)c3ccccc3)coc12 [Example 59, (3-((2-(diphenylmethoxy)ethoxy)methyl)benzofuran-7-yloxy)acetic acid]	0.33	0.6	–
Cc1oc2c(OCC(=O)O)cccc2c1CCSC(c1ccccc1)c1ccccc1 [Example 81, (3-(2-(diphenylmethylthio)ethyl)-2-methylbenzofuran-7-yloxy)acetic acid]	0.64	4.5	–
O=C(O)COc1cccc2c(CCSC(c3ccccc3)c3ccccc3)c(CO)oc12 [Example 83, (2-hydroxymethyl-3-(2-(diphenylmethylthio)ethyl)benzofuran-7-yloxy)acetic acid]	0.46	3.3	–
O=C(O)COc1cccc2c(CCSC(c3ccccc3)c3ccccc3)c(CCO)oc12 [Example 85]	0.62	0.75	–
O=C(O)COc1cccc2c(CCSCC(c3ccccc3)c3ccccc3)coc12 [Example 88, (3-(2-(2,2-diphenylethylthio)ethyl)benzofuran-7-yloxy)acetic acid]	0.51	0.73	–
O=C(O)COc1cccc2c(CCCSC(c3ccccc3)c3ccccc3)coc12 [Example 91, (3-(3,3-diphenylmethylthiopropyl)benzofuran-7-yloxy)acetic acid]	–	1.9	–
O=C(O)COc1cccc2c(COCC=C(c3ccccc3)c3ccccc3)coc12 [Example 94, (3-((3,3-diphenyl-2-propenyloxy)methyl)benzofuran-7-yloxy)acetic acid]	0.71	–	–
C[C@H](COC(c1ccccc1)c1ccccc1)OCc1coc2c(OCC(=O)O)cccc12 [Example 97, (R)-(3-((2-(diphenylmethoxy)-1-methylethoxy)methyl)benzofuran-7-yloxy)acetic acid]	1.6	3.4	–
O=C(O)COc1cccc2c(CC(O)CCC(c3ccccc3)c3ccccc3)coc12 (stereo not drawn) [Example 101, (3-(2-hydroxy-5,5-diphenylpentyl)benzofuran-7-yloxy)acetic acid]	1.5	1.8	–
Cc1ccc(S(=O)(=O)NCCn2ccc3c(OCC(=O)O)cccc32)cc1 [Example 103]	1.3	–	0.00309
O=C(O)COc1cccc2c1ccn2CCOCC(c1ccccc1)c1ccccc1 [Example 109, (1-(2-(2,2-diphenylethoxy)ethyl)indole-4-yloxy)acetic acid]	–	27.9	–
O=C(O)COc1cccc2c1ccn2CCSC(c1ccccc1)c1ccccc1 [Example 112, (1-(2-(diphenylmethylthio)ethyl)indole-4-yloxy)acetate]	0.84	4.5	–
O=C(O)COc1cccc2c1CCN2CCOCC(c1ccccc1)c1ccccc1 [Example 122, (1-(2-(2,2-diphenylethoxy)ethyl)indoline-4-yloxy)acetic acid]	1.4	2.7	–
O=C(O)COc1cccc2c1CCN2CCSC(c1ccccc1)c1ccccc1 [Example 125, (1-(2-(diphenylmethylthio)ethyl)indoline-4-yloxy)acetic acid]	0.72	3.1	–
O=C(O)COc1cccc2cc(COCCOC(c3ccccc3)c3ccccc3)oc12 [Example 130, (2-(2-diphenylmethoxyethoxymethyl)benzofuran-7-yloxy)acetic acid]	18	–	–
